Cytotoxicity data for 99 compounds are collected here from ChEMBL document CHEMBL3507680, “University of Dundee, Gates Library screen for HepG2 cell viability”.

The nature of the data set: Human HepG2 cell viability assay in 384 well format. The class given is toxicity, cell-based. The arrangement: dose 125 nL, time 70.5 hour; concentration not given beside the values. To be noted: HepG2 cells, read-out: Inhibition.
For `c1ccc(N2CCOC(Cc3cccnc3)C2)cc1` (centres undefined), the cytotoxicity at 70.5 h was -7.14%.
In the case of `COc1ccccc1CN1CCN(CCN2CCOC2=O)CC1` it was 8.76%; in that of `CCN(CC(=O)NC(C)C)S(=O)(=O)N1CCCC(C)C1` (centres undefined), -1.39%; in that of `O=C(NCc1cccnc1N1CCCC(O)C1)c1ccsc1` (centres undefined), -20.7%.
As to `COc1ccccc1-c1nc(C(=O)N2CCOCC2)n2ccncc12`, the cytotoxicity at 70.5 h is -9.1%.
As to `CN(Cc1cccc(C#N)c1)Cn1nc(C(C)(C)C)ccc1=O`, the cytotoxicity at 70.5 h was -0.146%.
In the case of `CCn1c(C)nnc1CN(C)C1CCN(CCCSC)C1` (centres undefined), the cytotoxicity at 70.5 h was found to be 26.5%.
`Cn1ccc2cc(CC3COCCN(C(=O)c4cccnc4)C3)ccc21` (centres undefined): the cytotoxicity at 70.5 h is 11.9%.
With `CCc1nc(C2CCCN2CC(=O)Nc2cc(C)on2)no1` (centres undefined), the cytotoxicity at 70.5 h was -6.96%.
As for `Cc1cc(C)n(CC2CN(Cc3cnc(C)s3)CCO2)n1` (centres undefined), the cytotoxicity at 70.5 h was 16.8%.
As for `CC(=O)N1CCC(NC(=O)N2CCN(c3cnccn3)CC2)CC1`, the cytotoxicity at 70.5 h stood at 1.14%.
Then `O=C(NCCCO)Nc1cccc(C[S+]([O-])Cc2ccccc2)c1` (centres undefined), with -4.46%.
In the case of `CCOCCn1nc(C)cc1C(=O)N1CC[C@](O)(CC)[C@H](O)C1`, the cytotoxicity at 70.5 h is 3.37%.
In the case of `O=C(NCCc1cnccn1)c1cccc(S(=O)(=O)NC2CCOC2)c1` (centres undefined) it was -1.15%; in that of `Cc1cccn2c(=O)cc(OC(=O)c3ccccc3)nc12`, -17.1%.
Regarding `Cc1ccoc1C(=O)NC1CCN(Cc2cccc3c2OCCO3)CC1`, the cytotoxicity at 70.5 h is 6.48%.
`CCN(CC)C(=O)[C@@H]1C[C@H](N)CN1C(=O)c1cc2c([nH]c1=O)CCC2`: the cytotoxicity at 70.5 h came to 14.4%.
Then `COc1ccc(N(C)C(=O)c2cccc(S(C)(=O)=O)c2)cn1`, with -3.33%; and `CC(C)(C)n1cc(C2=CCN(CCNC(=O)c3ccccc3)CC2)cn1`, with -5.4%.
In the case of `COCCn1ccc(=O)c(OCC(=O)Nc2ccccc2)c1C`, the cytotoxicity at 70.5 h was -10.1%.
For `COCC1Cn2nnc(-c3cnn(C)c3)c2CN1Cc1cccs1` (centres undefined), the cytotoxicity at 70.5 h is -12.1%.
For `Cc1cc(C)nc(C2CCN(C(=O)CO)CC2)n1`, the cytotoxicity at 70.5 h is -6.07%.
For the compound `Cc1cc(C(F)(F)F)nc(CNC(=O)CCCN2CCCCC2)n1`, the cytotoxicity at 70.5 h is -2.62%.
`Cc1nnc(NC(=O)CN2CCc3c(nc(C4CC4)n3C)C2)s1`: the cytotoxicity at 70.5 h was 6.62%.
In the case of `CC(C)c1noc(C(C)N2CCN(CCc3ccncc3)CC2)n1` (centres undefined) it was -16.3%.
For the compound `CCOC(=O)N1CCC(C(=O)Nc2nnc(C(F)(F)F)[nH]2)CC1`, the cytotoxicity at 70.5 h was 5.31%.
Take `N[C@@H]1c2ccccc2C2(CCN(C(=O)c3ccccc3O)CC2)[C@H]1O`: the cytotoxicity at 70.5 h is -6.11%.
Then `Cc1nn(C)c(C)c1C1CCCN1C(=O)c1ccc(C(N)=O)s1` (centres undefined), with 17.5%; and `COCCN(C)C[C@@H]1CN(C(=O)c2ccc(OC)c(F)c2)C[C@@H]1CO`, with -7.53%.
With `Cc1nc(O)ccc1C(=O)N1CCCC1c1nc(-c2ccccc2)n[nH]1` (centres undefined), the cytotoxicity at 70.5 h came to 0.447%.
Regarding `Cc1ccc(OCCCC(=O)Nc2nonc2C)cc1C`, the cytotoxicity at 70.5 h is 12%.
In the case of `Cc1cccc(-n2ncc3c2CCCC3NCC(C)(C)CO)c1C` (centres undefined), the cytotoxicity at 70.5 h was -10.7%.
Turning to `O=c1c(Cc2ccc(Cl)cc2Cl)c(O)ccn1CC1CC1`, the cytotoxicity at 70.5 h was -5.97%.
With `COCC(=O)N(Cc1cccc(C)c1)Cc1ccccc1OC`, the cytotoxicity at 70.5 h is -4.3%.
Then `Cc1nn(CC(=O)N2CCCN(c3cccnn3)CC2)c(C)c1Cl`, with 0.771%; and `CCC[C@H]1CN(C(=O)c2cc(-c3cccs3)n(C)n2)C[C@@H]1N`, with -0.00623%.
Consider `COC(=O)N1CCN(Cc2csc(-c3ncccn3)n2)CC1`, for which the cytotoxicity at 70.5 h was -5.37%.
Turning to `Cc1[nH]c(-c2ccccc2)nc1C(=O)N1CC[C@H](CO)[C@@H](O)C1`, the cytotoxicity at 70.5 h turned out to be 23.4%.
Then `c1ccc(-c2nccc(CNCC3CCCN3c3cccnn3)n2)cc1` (centres undefined), with 39.7%; and `Cc1cnn(CCNCc2ccccc2OCc2ccncc2)c1`, with 3.09%.
For `c1ccc(CN2CCc3ncnc(-c4cncnc4)c3CC2)nc1`, the cytotoxicity at 70.5 h came to 21.8%.
On to `COc1c(C)cc(C(C(=O)O)N(C)Cc2ccn[nH]2)cc1C` (centres undefined), for which the cytotoxicity at 70.5 h was -3.26%.
For the compound `NC(=O)N1CCCC(c2nc(-c3cccnn3)no2)C1` (centres undefined), the cytotoxicity at 70.5 h was -5.18%.
Then `O=C(Nc1cc(C(F)(F)F)c[nH]c1=O)N1CCSCC1`, with -8.45%; and `CN1C(=O)COc2cc(NC(=O)CCc3nc4cccnc4[nH]3)ccc21`, with -11.3%; and `CCC1(CC)CC(=O)N(CC(O)c2ccc(Cl)cc2)C1=O` (centres undefined), with -4.91%.
In the case of `CC(C)NC1CCc2[nH]c(=O)ccc2C1` (centres undefined), the cytotoxicity at 70.5 h is -3.78%.
`CC(C)n1c(=O)nc2n1C(=O)N(c1ccc(F)cc1)C2`: the cytotoxicity at 70.5 h is -10.1%.
Regarding `Cc1nnc(NC(=O)CN2CCOC(Cn3cccn3)C2)s1` (centres undefined), the cytotoxicity at 70.5 h was -6.17%.
Turning to `CCOC(C)C(=O)Nc1ccc(Sc2nncn2C)c(Cl)c1` (centres undefined), the cytotoxicity at 70.5 h was -4.37%.
Then `CCc1cnc(NCC(CC)N2CCOCC2)nc1` (centres undefined), with -6.68%; and `O=C(NCCn1cccn1)c1ccn(-c2cccc(F)c2)n1`, with -11.4%.
In the case of `CSCC(=O)NS(=O)(=O)c1ccc2c(c1)OCCO2` it was 0.628%; in that of `CC(C)(C)OC(=O)N1CCCC[C@H]1C(=O)NCc1nccs1`, -9.82%.
Consider `COCCN1C(=O)CC[C@]12CC[C@@H](NCc1cccnc1OC)CC2`, for which the cytotoxicity at 70.5 h was -2.58%.
Then `Cc1nc(CN2CCCC(NCc3ccc4c(c3)CCO4)C2)no1` (centres undefined), with 14.2%; and `Cc1ccc(N2CCN(C(=O)CCc3ccc(O)cc3)CC2=O)cc1`, with -10.1%; and `O=C(NC[C@H]1OC[C@@H](NCc2ccccc2F)[C@@H]1O)Nc1ccccc1`, with -3.35%.
With `CCN1CCN(C2CCN(Cc3nc(C)c(C)o3)CC2)C1=O`, the cytotoxicity at 70.5 h was -3.68%.
As to `N#CC1(C(=O)N2C[C@H]3CC[C@@H]2CN(Cc2ccncc2)C3)CCOCC1`, the cytotoxicity at 70.5 h was -23.5%.
`CC(C)OC(=O)N1C[C@H]2CC[C@@H]1CN(C(=O)c1ccccc1)C2`: the cytotoxicity at 70.5 h was -2.95%.
With `CCN(CC)C(CNS(=O)(=O)c1ccc(C(N)=O)cc1)c1ccco1` (centres undefined), the cytotoxicity at 70.5 h is -0.105%.
In the case of `CN1CCCN(C(=O)c2nc3c(o2)CN(S(C)(=O)=O)C3)CC1` it was -14.5%; in that of `Cc1csc(C2CCCCN2C(=O)c2c[nH]c(C)n2)n1` (centres undefined), 0.914%.
On to `CS(=O)(=O)N1Cc2ccccc2C2(CCN(C(=O)c3ccno3)CC2)C1`, for which the cytotoxicity at 70.5 h was 7.95%.
For `O=S(=O)(NCCSc1nccn1C1CC1)c1ccccc1`, the cytotoxicity at 70.5 h was -3.08%.
In the case of `O=c1cc(CNCc2ccc3c(c2)OCO3)nc2ccccn12` it was -6.34%.
Regarding `CCN(Cc1ccco1)C(C)c1nc(C)no1` (centres undefined), the cytotoxicity at 70.5 h is -2.63%.
In the case of `N#Cc1cccc(OCCN2CCCC2C(=O)NCC(F)(F)F)c1` (centres undefined), the cytotoxicity at 70.5 h is -0.526%.
In the case of `COCCC(=O)N1C[C@H]2CN(Cc3cccnc3)C(=O)[C@H]2C1` it was 4.13%.
Regarding `COCc1ccccc1CNCc1c(C(C)C)nn(C)c1N(C)C`, the cytotoxicity at 70.5 h was -0.306%.
Turning to `COc1c(C)cnc(CN(C)C(=O)c2ccccc2F)c1C`, the cytotoxicity at 70.5 h was -4.79%.
On to `N#Cc1cccc(C(=O)N2CCN(c3ncccn3)CC2)c1`, for which the cytotoxicity at 70.5 h was 14.3%.
Turning to `CN(C)C(=O)CO[C@H]1CO[C@@]2(CCN(Cc3ccoc3)C2)C1`, the cytotoxicity at 70.5 h was -5.9%.
Then `CCOCC(=O)Nc1cccnc1-n1ccnc1C`, with -6.13%; and `COCC1CN(Cc2ccc(OC)cc2)Cc2nnn(CC3CC3)c21` (centres undefined), with -4.99%.
`N#Cc1ccsc1NC(=O)CN1CCn2c(nnc2C2CC2)C1`: the cytotoxicity at 70.5 h is -6.74%.
For the compound `Cc1ccc(C(=O)N2CCC(c3n[nH]c(C4CC4)n3)CC2)cc1F`, the cytotoxicity at 70.5 h is -7.97%.
On to `CCN1CC2(CCN(CC3CCCO3)CC2)OC1=O` (centres undefined), for which the cytotoxicity at 70.5 h is -2.54%.
In the case of `c1csc(-c2nc(CN3CCn4c(nnc4C4CC4)C3)co2)c1`, the cytotoxicity at 70.5 h is -13.1%.
In the case of `Cc1n[nH]c2nc(-c3cccc(Cl)c3)cc(C(=O)O)c12` it was 9.1%; in that of `CCc1cc(=O)[nH]c(-c2ccc(NCCC(C)O)nc2)n1` (centres undefined), -5.98%; in that of `COCCCN1CCC(N(Cc2noc(C)n2)C(C)=O)C1` (centres undefined), -5.67%.
In the case of `CCc1ncnc2c1CCN(Cc1cccs1)CC2` it was -7.19%; in that of `CCOC(=O)Cn1ccc(O)c(Cc2ccc(Cl)cc2Cl)c1=O`, 0.692%; in that of `NC(=O)c1ccc(N2CCCCC2)c(NC(=O)c2ccc(F)cc2F)c1`, 3.5%.
Turning to `O=C1NCC(C(=O)N(Cc2ccc(C(F)(F)F)cc2)C2CC2)N1` (centres undefined), the cytotoxicity at 70.5 h was 23.5%.
Turning to `COc1cc(NC(=O)NCCO)ccc1N1CCOC1=O`, the cytotoxicity at 70.5 h is -6.58%.
As to `Cc1cc(N(C)C)nc(C2COCCN2Cc2cscn2)n1` (centres undefined), the cytotoxicity at 70.5 h is 18%.
In the case of `CCSCC(C)NCc1cc(-c2ccco2)on1` (centres undefined) it was -10.3%; in that of `Cc1csc(N2CCN(Cc3ccccn3)CC2C)n1` (centres undefined), -5.63%.
Then `CCOCc1ccccc1NC(=O)NCC(C)(O)c1cccs1` (centres undefined), with -1.02%; and `CCC(CCO)NS(=O)(=O)c1ccc(Br)cn1` (centres undefined), with -0.693%; and `CN(Cc1nc2ccccc2c(=O)[nH]1)C1CC(=O)N(C2CC2)C1=O` (centres undefined), with -12.1%.
Take `Cc1cccc(CN2C(=O)CC[C@H]3[C@@H]2CCN3CC(=O)N(C)C)n1`: the cytotoxicity at 70.5 h is -7.14%.
With `CS(=O)(=O)CCSC1CCN(c2ccccc2F)C1=O` (centres undefined), the cytotoxicity at 70.5 h was -14.2%.
For `O=C(CCc1ccccc1F)N1CCC(Nc2cccnn2)CC1`, the cytotoxicity at 70.5 h is -1.09%.
In the case of `Cc1cc(CN2C[C@@H]3CCCO[C@@H]3[C@H](Nc3ccccn3)C2)no1` it was -8.77%; in that of `O=C1CC2(CCN(c3nncs3)C2)CN1c1cccc(F)c1` (centres undefined), -3.52%.
